Columns and labels:
gastric lesions = test: HCl-ethanol-induced gastric lesions in rats (cytoprotective effect); type: in vivo, Male Sprague-Dawley rats; details: Rattus norvegicus, po; for inhibition in vivo at 10 mg/kg: 10 mg/kg p.o. in 1% CMC, 30 minutes before 150 mM HCl-60% ethanol, 3 rats per group, lesions measured 1 hour later, read-out: Inhibition (inhibitory rate of ulcer length vs control); for ED50: 30 minutes before HCl-ethanol
Protocol: Male Sprague-Dawley rats (body weight: 220-240 g, 7 weeks) were deprived of food but allowed free access to water for 24 hours prior to the experiments. Each control and experimental group consisted of 3 rats. One hundred and fifty mM HCl-60% ethanol (v/v) was given p.o. in a volume of 1 ml/rat. The animals were sacrificed 1 hour later, and the stomach was removed and inflated by injecting 10 ml of 2% formalin to fix the inner and outer layers of the gastric walls. Subsequently, the stomach was incised along the greater curvature and washed gently with ice-cold saline.
Gastric lesions were identified in the grandular portion. The length of lesions was measured in millimeters (mm) under a dissecting microscope with a square grid (×10), and lesion severity was expressed as the total length of lesions per stomach.
Test compound (I) (10 mg/kg), suspended in 1% carboxymethyl cellulose (CMC), or 1% carboxymethyl cellulose for the control was orally administered 30 minutes before HCl-ethanol administration. The ulcer length of the treated group and the control group were compared and the inhibitory rates were calculated.

[1] = Oral acute toxicity (LD50) in rats; details: rat, in vivo, 0.3% CMC-Na suspension, 72 hours observation, 10 rats per group, Probit method
Protocol: A 0.3% CMC-Na suspension of a test compound was orally administered to groups of Slc:Wistar/KY rats (male: 90-120 g), each group consisting of 10 rats. […] LD50 values were calculated by the Probit method to be as follows: […]

ulcer = test: Restraint-immersion stress ulcer in rats (anti-stress ulcer activity); type: in vivo, Male Sprague-Dawley rats; details: 32 mg/kg p.o. in 0.1% MC, 5 minutes before restraint-immersion for 7 hours at 22° C.
Protocol: Male Sprague-Dawley rats (body weight: 230-280 g) were placed under restraint in a stress cage after fasting for 15 hours, and immersed vertically in the water bath kept at 22° C. to the level of the xiphoid of the animal. After restraint-immersion for 7 hours the animals were killed, and the stomach from each animal was fixed with formalin.
Each stomach was opened by cutting along the greater curvature, and ulcer area (mm^2) was measured with a stereoscopic microscope. Ulcer indices of the treated group and the control group were compared, and inhibitory rates were calculated. The tested compound, either 4,6-bis(1-pyrazolyl) pyrimidine (32 mg/kg) suspended in 0.1% methylcellulose (MC) or 0.1% methylcellulose (MC) alone, was orally administered 5 minutes before the restraint-immersion.

| Compound | inhibition in vivo at 10 mg/kg (gastric lesions) | LD50 at 72 h [1] | ED50 (gastric lesions) | Inhibition (inhibitory rate of ulcer index vs control) (ulcer) |
| --- | --- | --- | --- | --- |
| CCOc1cc(C)nc(-n2ccnc2)n1 [Example 10, 4-Ethoxy-2-(1-imidazolyl)-6-methylpyrimidine] | 80.7% | – | – | – |
| c1cnn(-c2cc(N3CCCCC3)ncn2)c1 [Example 19, 6-Piperidino-4-(1-pyrazolyl)pyrimidine] | 79.2% | – | – | – |
| COc1cc(-n2ccnc2)ncn1 [Example 16, 4-(1-Imidazolyl)-6-methoxypyrimidine] | 91.3% | 400 mg/kg | 5.6 mg/kg | – |
| c1cnn(-c2cc(-n3cccn3)ncn2)c1 [Example 1, 4,6-Bis(1-pyrazolyl)pyrimidine] | 95.6% | > 3000 mg/kg | 0.72 mg/kg | 73.6% |
| CCOc1cc(C)nc(-n2cccn2)n1 [Example 11, 4-Ethoxy-6-methyl-2-(1-pyrazolyl)pyrimidine] | 78.3% | – | – | – |
| c1cn(-c2ccnc(-n3ccnc3)n2)cn1 [Example 4, 2,4-Bis(1-imidazolyl)pyrimidine] | 78.2% | – | – | – |
| COc1cc(C)nc(-n2cccn2)n1 [Example 6, 4-Methoxy-6-methyl-2-(1-pyrazolyl)pyrimidine] | 87.2% | – | – | – |
| COc1nc(C)cc(-n2cncn2)n1 [Example 9, 2-Methoxy-6-methyl-4-(1,2,4-triazol-1-yl)pyrimidine] | 75.7% | – | – | – |
| COc1cc(C)nc(-n2ccnc2)n1 [Example 7, 2-(1-Imidazolyl)-4-methoxy-6-methylpyrimidine] | 82.6% | – | – | – |
| CC(C)Oc1cc(-n2cccn2)ncn1 [Example 17, 6-Isopropoxy-4-(1-pyrazolyl)pyrimidine] | 79.8% | – | – | – |
| COc1cc(-n2cccn2)ncn1 [Example 15, 6-Methoxy-4-(1-pyrazolyl)pyrimidine] | 95.6% | – | – | – |
